Experimental data published in patent US9750481B2, “System and method for analyzing antegrade and retrograde blood flow” (Indiana University Research and Technology Corporation, priority 2014, dated 2017).
Entries after “also recorded” stand apart in the source; their conditions may differ.

Experiments:
[1] = system: superficial femoral artery (SFA); assay: Shear rates in the SFA by Doppler ultrasound during 3 hours of sitting with oral Vitamin C (VIT trial); format: in vivo, human; settings: Mean ± SD
Experimental: Two screening visits and two sitting trials in random sequence, one with uninterrupted sitting (SIT) and one with oral Vitamin C during the sitting time (VIT) were conducted. Specifically, SIT represents prolonged 3 hours of sitting. VIT represents prolonged sitting with intermittent vitamin C. Flow mediated dilation (FMD) was measured at 0, 1, 2 and 3 hours. Subjects ingested 1 g vitamin C at 30 minutes and 500 mg at 1 hour 30 minutes. Subjects arrived at the laboratory after an overnight fast of at least 6 hours between 7:00 AM and 9:00 AM. The arrival time was matched for both trials within each subject. Subjects were also asked to refrain from any caffeinated drink for at least 8 hours before reporting to the lab. Upon their arrival in the lab, all subjects self-reported adhering to the fasting schedule. During both trials, the subjects remained seated for 3 hours without moving their legs or feet. Subjects were allowed to move their arms, not vigorously, for example to use a computer or do light reading during the non-testing periods of the trials. Arm movement was not quantified. The flow mediated dilation (FMD) and other vascular function parameters were measured at baseline, 1 hour, 2 hours and 3 hours into testing. The two trials were performed in random order, separated by a minimum of two and a maximum of seven days. The SIT trial was uninterrupted sitting for 3 hours, whereas in the VIT trial, subjects ingested two Vitamin C tablets; 1 g at 30 minutes and 500 mg at 1 hour 30 minutes during the sitting interval. In addition to imaging the arterial dimensions, Doppler ultrasound was used to concurrently measure SFA blood velocity. Doppler flow signals were corrected at an insonation angle of 60°, and the sample volume was placed in the middle of the artery. Diameter images and Doppler measurements of blood velocity were continuously recorded for 45 seconds at baseline prior to cuff inflation. The automatic blood pressure cuff was then rapidly inflated to 250 mmHg and maintained for 5 minutes until cuff deflation. Diameter and blood velocity recordings resumed prior to cuff deflation and continued for 5 minutes after deflation. Ultrasound images were continuously recorded at 5 frames•s^-1 with […] (TechSmith, Okemos, Mich., USA), and stored as .avi files. This procedure was repeated hourly across the sitting intervals. Off-line analysis of diameters was performed using automated edge-detection software (Brachial Analyzer, Medical Imaging Applications LLC, Coralville, IA, USA). This software allows the technician to determine a region of interest where the near and far vessel walls are most clear. The vessel wall borders are then detected using an optimal graph search-based segmentation that uses a combination of pixel density and image gradient as an objective function. All analyzed images were reviewed by the technician and edited when needed to ensure that diameter measurements were always determined from the intima-lumen interface at the near and far vessel wall. Blood velocities were determined using the systems and methods described herein after automated selection of the blood flow envelop throughout the measurement. The velocity-time integral was used to calculate the mean blood velocity for each cardiac cycle. Diameters and blood velocities were not ECG-gated. The peak dilation after cuff deflation was determined using the highest 3-s moving average and was presented as a percentage change from baseline diameter (FMD %). SFA shear rate was used as an estimate of arterial shear stress and was calculated for each FMD % at baseline and during the post occlusion period using the following formula: 4•Vm•D-1 where Vm is mean blood velocity (cm• s-1) and D is mean arterial diameter (cm). All measurements and analysis were performed by a single researcher (ST) who was blinded to the participant identity and treatment condition for each image file.

[2] = system: SFA endothelial function; assay: Superficial femoral artery flow mediated dilation (SFA FMD) during 3 hours of sitting, SIT vs VIT trial; format: in vivo, human; settings: oral Vitamin C 1 g at 30 minutes and 500 mg at 1 hour 30 minutes, different at 1 hour (p=0.009), 2 hours (p=0.016), 3 hours (p=0.004)
Experimental: Two screening visits and two sitting trials in random sequence, one with uninterrupted sitting (SIT) and one with oral Vitamin C during the sitting time (VIT) were conducted. Specifically, SIT represents prolonged 3 hours of sitting. VIT represents prolonged sitting with intermittent vitamin C. Flow mediated dilation (FMD) was measured at 0, 1, 2 and 3 hours. Subjects ingested 1 g vitamin C at 30 minutes and 500 mg at 1 hour 30 minutes. Subjects arrived at the laboratory after an overnight fast of at least 6 hours between 7:00 AM and 9:00 AM. The arrival time was matched for both trials within each subject. […] Subjects were allowed to move their arms, not vigorously, for example to use a computer or do light reading during the non-testing periods of the trials. Arm movement was not quantified. The flow mediated dilation (FMD) and other vascular function parameters were measured at baseline, 1 hour, 2 hours and 3 hours into testing. […] Endothelial function was measured using SFA FMD, measured in accordance with current guidelines. […] Diameter images and Doppler measurements of blood velocity were continuously recorded for 45 seconds at baseline prior to cuff inflation. […] Ultrasound images were continuously recorded at 5 frames•s^-1 with […] […] Blood velocities were determined using the systems and methods described herein after automated selection of the blood flow envelop throughout the measurement. […]

[3] = 1 hr, oral Vitamin C 1 g at 30 minutes
[4] = 2 hr, oral Vitamin C 1 g at 30 minutes and 500 mg at 1 hour 30 minutes
[5] = 3 hr, oral Vitamin C 1 g at 30 minutes and 500 mg at 1 hour 30 minutes
[6] = Baseline (0 hr), before Vitamin C ingestion, male subjects, sitting

O=C1O[C@H]([C@@H](O)CO)C(O)=C1O [Vitamin C]
Antegrade shear rate in the SFA [1, 3]: 8.58 ± 6.91 s⁻¹ | Mean shear rate in the SFA [1, 3]: 4.44 ± 4.23 s⁻¹ | Antegrade shear rate in the SFA [1, 4]: 6.56 ± 3.08 s⁻¹ | Mean shear rate in the SFA [1, 4]: 2.99 ± 2.6 s⁻¹ | Antegrade shear rate in the SFA [1, 5]: 6.22 ± 2.39 s⁻¹ | Mean shear rate in the SFA [1, 5]: 3.17 ± 2.14 s⁻¹ | Antegrade shear rate in the SFA [1, 6]: 7.03 ± 3.5 s⁻¹ | Mean shear rate in the SFA [1, 6]: 5.17 ± 7.54 s⁻¹ | Effect on decline of SFA FMD % during sitting [2]: prevented the decline in SFA FMD; also recorded: prevented the decline in endothelial function | Effect on decline of SFA FMD % during sitting ([2]; listed as VIT): preventing the decline of FMD
